In ChEMBL document CHEMBL5104230, “Preparation, biological evaluation and QSAR analysis of urea substituted 2,4-diamino-pyrimidine anti-malarials” (RSC Med Chem, 2022):
pEC50, pIC50: −log10 of the molar value. ≈ marks a conversion by molar mass, not a printed value.

How the values were obtained:
[1] = system: Plasmodium falciparum; experiment: Antimalarial activity against chloroquine sensitive Plasmodium falciparum 3D7 infected in human RBC assessed as parasite growth inhibition incubated for 72 hrs by SYBR Green dye based fluorescence assay; format: functional, organism-based; conditions: 3D7, Erythrocyte
[2] = system: HepG2; experiment: Cytotoxicity against human HepG2 cells assessed as cell growth inhibition incubated for 72 hrs by resazurin dye based fluorescence assay; format: functional; conditions: HepG2, 72 h
[3] = system: Plasmodium falciparum; experiment: Antimalarial activity against Plasmodium falciparum 3D7 assessed as reduction in parasite growth incubated for 72 hrs; format: functional, organism-based; conditions: 3D7, 72 h
[4] = system: HepG2; experiment: Cytotoxicity against human HepG2 cells assessed as cell growth inhibition at 10 uM incubated for 48 hrs by CellTiter-Glo assay; format: functional; parameters: scale not given: the % may be the effect or the level left
[5] = Partition coefficient, logD of compound in octanol and phosphate buffer at pH 7.4 incubated for 6 hrs under shaking condition by HPLC-UV analysis; format: physicochemical
[6] = Aqueous solubility of compound in PBS buffer at pH 7.4 by HPLC-UV analysis; format: physicochemical
[7] = Metabolic stability in human liver microsome assessed as intrinsic clearance at 0.5 uM incubated upto 30 mins by UPLC-MS/MS analysis; format: ADME; conditions: microsomes, 0.5 h
[8] = Metabolic stability in CD1 mouse liver microsome assessed as intrinsic clearance at 0.5 uM incubated upto 30 mins by UPLC-MS/MS analysis; format: ADME; conditions: microsomes, 0.5 h
[9] = target: Serine/threonine-protein kinase pim-1 (Homo sapiens) (UniProt P11309); experiment: Inhibition of human PIM1 at 1 uM incubated for 30 mins in presence of [gamma-33P]ATP by kinase selectivity assay
[10] = target: Cyclin-dependent kinase 2 (Homo sapiens) (UniProt P24941); experiment: Inhibition of human CDK2 at 1 uM incubated for 30 mins in presence of [gamma-33P]ATP by kinase selectivity assay
[11] = target: Mitogen-activated protein kinase 3 (Homo sapiens) (UniProt P27361); experiment: Inhibition of human ERK1 at 1 uM incubated for 30 mins in presence of [gamma-33P]ATP by kinase selectivity assay
[12] = target: Mitogen-activated protein kinase 8 (Homo sapiens) (UniProt P45983); experiment: Inhibition of human JNK1 at 1 uM incubated for 30 mins in presence of [gamma-33P]ATP by kinase selectivity assay
[13] = target: T1, Tyrosine-protein kinase JAK3 (Homo sapiens) (UniProt P52333); experiment: Inhibition of human JAK3 at 1 uM incubated for 30 mins in presence of [gamma-33P]ATP by kinase selectivity assay
T1 sequence (whole entry): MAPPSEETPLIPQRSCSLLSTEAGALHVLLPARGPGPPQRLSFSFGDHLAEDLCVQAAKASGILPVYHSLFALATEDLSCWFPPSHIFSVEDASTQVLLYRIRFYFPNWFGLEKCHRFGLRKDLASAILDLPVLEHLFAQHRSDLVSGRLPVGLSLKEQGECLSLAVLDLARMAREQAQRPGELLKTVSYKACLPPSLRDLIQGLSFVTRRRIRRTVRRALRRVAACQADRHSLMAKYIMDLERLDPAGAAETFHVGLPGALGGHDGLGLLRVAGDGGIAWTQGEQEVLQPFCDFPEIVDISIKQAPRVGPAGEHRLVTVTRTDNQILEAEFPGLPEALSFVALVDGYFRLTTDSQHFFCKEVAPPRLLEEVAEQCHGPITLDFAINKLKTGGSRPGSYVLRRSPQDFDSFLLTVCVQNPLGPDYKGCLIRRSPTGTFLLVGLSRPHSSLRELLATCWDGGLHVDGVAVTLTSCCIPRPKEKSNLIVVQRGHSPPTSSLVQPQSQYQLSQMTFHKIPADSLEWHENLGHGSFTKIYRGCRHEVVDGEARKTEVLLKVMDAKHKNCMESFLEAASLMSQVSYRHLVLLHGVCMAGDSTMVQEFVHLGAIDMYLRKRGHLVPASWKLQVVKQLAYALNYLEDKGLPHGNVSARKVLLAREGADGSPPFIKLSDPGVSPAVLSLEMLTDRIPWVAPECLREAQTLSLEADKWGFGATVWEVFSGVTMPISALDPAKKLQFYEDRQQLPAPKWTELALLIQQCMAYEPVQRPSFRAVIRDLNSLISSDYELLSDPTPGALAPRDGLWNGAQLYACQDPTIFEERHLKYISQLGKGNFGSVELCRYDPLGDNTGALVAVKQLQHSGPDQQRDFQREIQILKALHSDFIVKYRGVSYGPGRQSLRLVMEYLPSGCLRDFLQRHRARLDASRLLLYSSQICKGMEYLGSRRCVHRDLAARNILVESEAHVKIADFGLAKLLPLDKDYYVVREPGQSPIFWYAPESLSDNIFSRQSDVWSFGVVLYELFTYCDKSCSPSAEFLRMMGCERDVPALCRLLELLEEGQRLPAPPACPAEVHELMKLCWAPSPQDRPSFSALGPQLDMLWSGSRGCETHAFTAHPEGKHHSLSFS

[14] = target: Mitogen-activated protein kinase kinase kinase 1 (Homo sapiens) (UniProt Q13233); experiment: Inhibition of human MEKK1 at 1 uM incubated for 30 mins in presence of [gamma-33P]ATP by kinase selectivity assay
[15] = target: Receptor tyrosine-protein kinase erbB-4 (Homo sapiens) (UniProt Q15303); experiment: Inhibition of human HER4 at 1 uM incubated for 30 mins in presence of [gamma-33P]ATP by kinase selectivity assay
[16] = target: T2, Mitogen-activated protein kinase kinase kinase 7 (Homo sapiens) (UniProt O43318); experiment: Inhibition of human TAK1 at 1 uM incubated for 30 mins in presence of [gamma-33P]ATP by kinase selectivity assay
T2 sequence (whole entry): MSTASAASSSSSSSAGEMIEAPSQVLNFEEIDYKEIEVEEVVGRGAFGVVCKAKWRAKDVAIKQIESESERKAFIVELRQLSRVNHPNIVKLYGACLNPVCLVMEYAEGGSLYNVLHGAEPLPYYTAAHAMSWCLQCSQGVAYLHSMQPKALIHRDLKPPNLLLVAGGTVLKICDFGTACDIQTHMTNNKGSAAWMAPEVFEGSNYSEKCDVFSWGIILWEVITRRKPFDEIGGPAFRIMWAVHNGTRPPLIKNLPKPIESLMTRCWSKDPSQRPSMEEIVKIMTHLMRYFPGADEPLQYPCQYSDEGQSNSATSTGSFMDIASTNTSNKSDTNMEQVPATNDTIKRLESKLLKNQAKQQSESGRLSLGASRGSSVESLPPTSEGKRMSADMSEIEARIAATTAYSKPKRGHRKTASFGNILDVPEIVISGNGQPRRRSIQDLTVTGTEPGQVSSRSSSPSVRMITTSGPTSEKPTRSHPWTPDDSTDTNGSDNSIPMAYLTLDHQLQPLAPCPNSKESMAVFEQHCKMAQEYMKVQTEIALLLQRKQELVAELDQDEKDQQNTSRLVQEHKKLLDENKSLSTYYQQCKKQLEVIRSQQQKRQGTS

[17] = target: T3, Aurora kinase A (Homo sapiens) (UniProt O14965); experiment: Inhibition of human AURA at 1 uM incubated for 30 mins in presence of [gamma-33P]ATP by kinase selectivity assay
T3 sequence (whole entry): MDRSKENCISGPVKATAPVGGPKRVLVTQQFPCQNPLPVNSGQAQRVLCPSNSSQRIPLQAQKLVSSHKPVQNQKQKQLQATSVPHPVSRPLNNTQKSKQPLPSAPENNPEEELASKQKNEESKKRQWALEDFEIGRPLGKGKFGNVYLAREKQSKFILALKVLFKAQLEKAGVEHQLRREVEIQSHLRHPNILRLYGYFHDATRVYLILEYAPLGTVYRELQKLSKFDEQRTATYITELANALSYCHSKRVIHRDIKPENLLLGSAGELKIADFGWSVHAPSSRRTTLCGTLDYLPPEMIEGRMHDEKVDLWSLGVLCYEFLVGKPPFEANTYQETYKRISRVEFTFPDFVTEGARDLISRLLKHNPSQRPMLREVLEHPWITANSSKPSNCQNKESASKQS

[18] = target: Vascular endothelial growth factor receptor 1 (Homo sapiens) (UniProt P17948); experiment: Inhibition of human VEGFR1 at 1 uM incubated for 30 mins in presence of [gamma-33P]ATP by kinase selectivity assay
[19] = Effective permeability in PBS at pH 7.4 incubated for 5 hrs by PAMPA based UPLC-MS/MS analysis; format: ADME

Receptor tyrosine-protein kinase erbB-4 (Homo sapiens), sequence (Q15303 whole entry): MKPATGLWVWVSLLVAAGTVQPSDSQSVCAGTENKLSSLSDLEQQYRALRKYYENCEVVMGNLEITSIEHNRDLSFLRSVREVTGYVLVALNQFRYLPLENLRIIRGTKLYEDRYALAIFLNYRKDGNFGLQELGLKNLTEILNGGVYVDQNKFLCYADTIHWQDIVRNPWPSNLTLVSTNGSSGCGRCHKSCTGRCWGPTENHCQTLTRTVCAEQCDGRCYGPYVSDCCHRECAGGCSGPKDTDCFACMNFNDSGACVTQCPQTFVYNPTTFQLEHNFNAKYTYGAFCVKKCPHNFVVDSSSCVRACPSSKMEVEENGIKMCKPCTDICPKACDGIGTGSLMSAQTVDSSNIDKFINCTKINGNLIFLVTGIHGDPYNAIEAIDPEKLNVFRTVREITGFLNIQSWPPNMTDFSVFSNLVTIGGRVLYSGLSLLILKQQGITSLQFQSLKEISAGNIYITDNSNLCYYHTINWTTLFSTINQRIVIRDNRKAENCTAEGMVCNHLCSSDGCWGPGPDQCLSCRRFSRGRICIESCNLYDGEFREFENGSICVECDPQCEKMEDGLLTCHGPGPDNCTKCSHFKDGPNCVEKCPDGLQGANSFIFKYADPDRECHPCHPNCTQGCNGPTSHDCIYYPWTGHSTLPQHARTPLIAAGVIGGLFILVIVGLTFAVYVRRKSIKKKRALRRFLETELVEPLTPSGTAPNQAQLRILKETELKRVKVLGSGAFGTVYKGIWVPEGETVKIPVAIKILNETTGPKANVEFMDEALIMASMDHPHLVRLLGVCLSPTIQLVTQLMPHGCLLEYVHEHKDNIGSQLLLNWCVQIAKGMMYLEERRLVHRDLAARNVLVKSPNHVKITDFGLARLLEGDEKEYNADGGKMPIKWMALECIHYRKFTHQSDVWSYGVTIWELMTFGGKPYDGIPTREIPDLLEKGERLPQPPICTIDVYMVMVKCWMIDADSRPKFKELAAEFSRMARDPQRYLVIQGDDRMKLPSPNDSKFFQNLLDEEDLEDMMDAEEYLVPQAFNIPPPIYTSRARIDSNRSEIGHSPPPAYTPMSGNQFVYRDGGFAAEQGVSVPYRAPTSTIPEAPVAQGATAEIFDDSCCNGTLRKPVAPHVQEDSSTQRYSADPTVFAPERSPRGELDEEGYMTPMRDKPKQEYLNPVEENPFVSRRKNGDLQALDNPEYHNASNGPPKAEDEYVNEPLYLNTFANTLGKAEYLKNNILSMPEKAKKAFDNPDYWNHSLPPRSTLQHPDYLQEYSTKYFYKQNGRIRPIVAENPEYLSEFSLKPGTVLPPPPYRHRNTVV
Mitogen-activated protein kinase 8 (Homo sapiens), sequence (P45983 whole entry): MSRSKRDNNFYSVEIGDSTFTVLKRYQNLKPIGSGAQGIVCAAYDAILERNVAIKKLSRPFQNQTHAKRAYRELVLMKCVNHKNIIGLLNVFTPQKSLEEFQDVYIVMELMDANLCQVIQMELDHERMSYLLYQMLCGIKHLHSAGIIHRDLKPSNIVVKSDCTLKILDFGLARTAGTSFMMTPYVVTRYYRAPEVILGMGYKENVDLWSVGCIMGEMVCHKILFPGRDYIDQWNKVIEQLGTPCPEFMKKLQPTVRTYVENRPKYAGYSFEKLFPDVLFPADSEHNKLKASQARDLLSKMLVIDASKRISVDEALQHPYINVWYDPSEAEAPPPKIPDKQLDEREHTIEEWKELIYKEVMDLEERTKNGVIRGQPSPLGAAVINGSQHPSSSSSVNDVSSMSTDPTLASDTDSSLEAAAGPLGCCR
Mitogen-activated protein kinase 3 (Homo sapiens), sequence (P27361 whole entry): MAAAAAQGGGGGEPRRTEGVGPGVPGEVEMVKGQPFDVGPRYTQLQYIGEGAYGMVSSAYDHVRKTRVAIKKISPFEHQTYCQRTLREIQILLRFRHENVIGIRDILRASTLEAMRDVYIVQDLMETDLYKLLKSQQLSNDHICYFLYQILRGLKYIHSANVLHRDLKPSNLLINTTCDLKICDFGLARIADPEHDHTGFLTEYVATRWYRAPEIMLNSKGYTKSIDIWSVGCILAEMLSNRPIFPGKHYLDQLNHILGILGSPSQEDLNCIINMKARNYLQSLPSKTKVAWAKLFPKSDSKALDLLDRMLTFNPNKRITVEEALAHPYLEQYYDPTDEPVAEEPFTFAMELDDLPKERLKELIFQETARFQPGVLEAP
Vascular endothelial growth factor receptor 1 (Homo sapiens), sequence (P17948 whole entry): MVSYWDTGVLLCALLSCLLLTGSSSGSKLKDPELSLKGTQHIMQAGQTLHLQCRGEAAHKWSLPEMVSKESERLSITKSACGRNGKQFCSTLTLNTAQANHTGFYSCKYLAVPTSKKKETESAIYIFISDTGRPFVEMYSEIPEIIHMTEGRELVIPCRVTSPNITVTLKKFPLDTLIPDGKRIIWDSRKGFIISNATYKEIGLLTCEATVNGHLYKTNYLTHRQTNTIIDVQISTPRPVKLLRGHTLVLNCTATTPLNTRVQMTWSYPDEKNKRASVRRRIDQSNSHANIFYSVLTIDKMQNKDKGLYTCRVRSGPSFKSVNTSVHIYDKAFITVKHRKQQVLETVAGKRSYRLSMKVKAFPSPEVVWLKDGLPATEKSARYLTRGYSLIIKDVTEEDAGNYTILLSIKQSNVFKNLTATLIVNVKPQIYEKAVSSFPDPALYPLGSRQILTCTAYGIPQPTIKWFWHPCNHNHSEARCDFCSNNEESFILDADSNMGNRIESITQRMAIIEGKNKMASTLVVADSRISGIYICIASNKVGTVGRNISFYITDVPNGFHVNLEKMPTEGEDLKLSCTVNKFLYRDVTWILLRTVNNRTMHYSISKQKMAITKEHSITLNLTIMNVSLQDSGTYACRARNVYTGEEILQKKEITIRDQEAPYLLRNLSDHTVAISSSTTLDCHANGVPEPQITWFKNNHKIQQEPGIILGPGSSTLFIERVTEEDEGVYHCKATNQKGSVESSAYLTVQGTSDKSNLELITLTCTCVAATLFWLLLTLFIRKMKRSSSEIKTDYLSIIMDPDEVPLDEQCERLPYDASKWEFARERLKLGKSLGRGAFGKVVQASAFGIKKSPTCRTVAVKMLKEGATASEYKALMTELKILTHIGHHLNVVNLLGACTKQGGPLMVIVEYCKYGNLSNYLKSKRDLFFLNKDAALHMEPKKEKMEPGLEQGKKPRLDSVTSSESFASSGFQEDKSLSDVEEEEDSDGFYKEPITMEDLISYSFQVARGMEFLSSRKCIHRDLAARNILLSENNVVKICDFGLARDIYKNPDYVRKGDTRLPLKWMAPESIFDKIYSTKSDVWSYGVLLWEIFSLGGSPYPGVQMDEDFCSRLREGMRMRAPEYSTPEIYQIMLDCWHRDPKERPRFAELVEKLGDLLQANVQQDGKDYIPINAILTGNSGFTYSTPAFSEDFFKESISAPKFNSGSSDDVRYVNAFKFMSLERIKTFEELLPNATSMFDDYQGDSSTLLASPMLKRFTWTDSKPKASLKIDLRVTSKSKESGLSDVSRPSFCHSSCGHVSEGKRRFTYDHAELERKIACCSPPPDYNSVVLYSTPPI
Serine/threonine-protein kinase pim-1 (Homo sapiens), sequence (P11309 whole entry, looked up): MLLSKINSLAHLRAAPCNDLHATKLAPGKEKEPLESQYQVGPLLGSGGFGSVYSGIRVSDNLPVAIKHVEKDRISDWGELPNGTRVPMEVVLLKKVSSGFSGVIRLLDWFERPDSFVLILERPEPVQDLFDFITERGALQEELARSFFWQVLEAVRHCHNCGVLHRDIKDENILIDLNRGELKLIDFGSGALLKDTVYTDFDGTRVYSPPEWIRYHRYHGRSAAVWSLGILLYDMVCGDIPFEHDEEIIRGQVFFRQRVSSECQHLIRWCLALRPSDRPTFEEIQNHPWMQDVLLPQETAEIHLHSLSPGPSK

SMILES	pIC50 [1]	pIC50 [2]	further results
Cc1c2ccc(Nc3ccnc(Nc4cccc(NC(=O)Nc5ccccc5)c4)n3)cc2nn1C	6.77	5.62	–
Cc1cccc(NC(=O)Nc2cccc(Nc3nccc(Nc4ccc5cn[nH]c5c4)n3)c2)c1	6.49	5.55	–
O=C(Nc1ccc(F)cc1)Nc1cccc(Nc2nccc(Nc3ccc4cn[nH]c4c3)n2)c1	6.40	4.92	–
CC(=O)c1ccc(NC(=O)Nc2ccc(N(C)c3ccnc(Nc4cccc(CS(C)(=O)=O)c4)n3)cc2)cc1	–	–	pEC50 [3]: 6.92; Activity [4]: 86%
Cc1cnc(Nc2cccc(NC(=O)Nc3ccccc3)c2)nc1Nc1ccc2cn[nH]c2c1	6.82	5.44	–
O[C@@H](c1cc(C(F)(F)F)nc2c(C(F)(F)F)cccc12)[C@H]1CCCCN1 [(S,R)-MEFLOQUINE]	–	4.94	–
O=S(=O)(c1ccc(Nc2nccc(Nc3ccc4nc[nH]c4c3)n2)cc1)N1CCOCC1	5.15	< 4.60	–
Nc1cnc(Nc2cccc(NC(=O)Nc3ccccc3)c2)nc1Nc1ccc2cn[nH]c2c1	5.54	< 4.60	–
O=C(Nc1ccccc1)Nc1cccc(Nc2nccc(Nc3ccc4nc[nH]c4c3)n2)c1	6.27	4.96	–
O=C(Nc1ccccc1)Nc1cccc(Nc2nccc(Nc3ccc4[nH]ccc4c3)n2)c1	7.03	5.30	logD at 6 h [5]: ≥ 4; solubility [6]: 0.33 µg/mL (≈ 0.758 µM); CLH [7]: 5 mL/min/g; CLH [8]: 8.8 mL/min/g; inhibition [9]: 99.6%; inhibition [10]: 71.4%; inhibition [11]: 84%; inhibition [12]: 68%; inhibition [13]: 56.7%; inhibition [14]: 45.9%; inhibition [15]: 32.2%; inhibition [16]: 26.6%; inhibition [17]: 21.7%; inhibition [18]: 1.8%
O=C(Nc1ccccc1)Nc1cccc(Nc2nccc(Nc3ccc4[nH]ncc4c3)n2)c1	6.48	5.09	–
O=C(Nc1ccc(Nc2nccc(Nc3ccc4cn[nH]c4c3)n2)cc1)Nc1cccc(F)c1	6.00	5.18	–
O=C1NC(Cc2ccc(Nc3nccc(Nc4ccc5cn[nH]c5c4)n3)cc2)CO1 (stereo not given)	5.15	4.70	–
O=C(Nc1ccccc1)Nc1ccc(Nc2nccc(Nc3ccc4cn[nH]c4c3)n2)cc1	6.04	4.96	–
Cc1ccc(Nc2nccc(Nc3ccc4cn[nH]c4c3)n2)cc1NC(=O)Nc1ccccc1	6.00	5.05	–
c1cc(Nc2ccc3cn[nH]c3c2)nc(Nc2ccc(OCCN3CCOCC3)cc2)n1	5.68	4.82	–
c1cc(Nc2ccc3nc[nH]c3c2)nc(Nc2ccc(OCCN3CCOCC3)cc2)n1	5.92	< 4.60	–
O=C(Nc1ccccc1)Nc1cccc(Nc2ncc(Cl)c(Nc3ccc4cn[nH]c4c3)n2)c1	5.60	5.46	–
Cn1cc2ccc(Nc3ccnc(Nc4cccc(NC(=O)Nc5ccccc5)c4)n3)cc2n1	6.66	4.92	logD at 6 h [5]: ≥ 4; solubility [6]: 0.11 µg/mL (≈ 0.244 µM); CLH [7]: 9.1 mL/min/g; CLH [8]: > 50 mL/min/g; inhibition [9]: 102%; inhibition [10]: 78.7%; inhibition [11]: 65.6%; inhibition [12]: 68.8%; inhibition [13]: 51.4%; inhibition [14]: 52.4%; inhibition [15]: 67.7%; inhibition [16]: 35.8%; inhibition [17]: 22%; inhibition [18]: 4.1%
O=C(Nc1ccccc1)Nc1cc(Nc2nccc(Nc3ccc4cn[nH]c4c3)n2)ccc1O	5.85	4.60	–
O=C(Nc1ccc(F)cc1)Nc1ccc(Nc2nccc(Nc3ccc4cn[nH]c4c3)n2)cc1	6.10	5.46	–
c1cc(Nc2ccc3cn[nH]c3c2)nc(Nc2ccc(Cn3cncn3)cc2)n1	5.14	4.74	–
O=C(Nc1ccccc1)Nc1cccc(Nc2nccc(Nc3ccc4cc[nH]c4c3)n2)c1	7.05	5.49	logD at 6 h [5]: ≥ 4; solubility [6]: 0.44 µg/mL (≈ 1.01 µM); Papp at 5 h [19]: 10 ×10⁻⁶ cm/s; CLH [7]: 2.6 mL/min/g; CLH [8]: 3.8 mL/min/g; inhibition [9]: 80.2%; inhibition [10]: 78.8%; inhibition [11]: 75.6%; inhibition [12]: 59.6%; inhibition [13]: 57.7%; inhibition [14]: 40.7%; inhibition [15]: 42.3%; inhibition [16]: 17.1%; inhibition [17]: 16.5%; inhibition [18]: 2.4%
O=C(Nc1ccccc1)Nc1cccc(Nc2nccc(Nc3ccc4cn[nH]c4c3)n2)c1	6.33	5.09	–
CN1CCN(c2ccc(Nc3ncc(C#N)c(Nc4ccccc4C(N)=O)n3)cc2)CC1	–	–	pEC50 [3]: 7.40; Activity [4]: 43%
Cc1ccc(NC(=O)Nc2cccc(Nc3nccc(Nc4ccc5cn[nH]c5c4)n3)c2)cc1	6.14	4.96	–
CN1CCN(S(=O)(=O)c2ccc(Nc3nccc(Nc4ccc5nc[nH]c5c4)n3)cc2)CC1	5.92	< 4.60	–
COc1ccc(NC(=O)Nc2ccccc2)cc1Nc1nccc(Nc2ccc3cn[nH]c3c2)n1	5.82	5.19	–
O=C(Nc1ccccc1)Nc1cccc(Nc2ncc([N+](=O)[O-])c(Nc3ccc4cn[nH]c4c3)n2)c1	5.19	< 4.60	–
